Data published in publication PMC12431657, “Discovery and mechanistic insights of dibenzoylmethane as a broad spectrum inhibitor of coronavirus” (PLOS Pathogens, 2025).
Several values for one entry are separate records, joined by “and”; a condition that tells them apart may be missing. Equal entries are not always repeated.

Tests used:
[1] = tested on: HCoV-OC43; assay: Antiviral activity of DBM in the presence of IFN signalling suppressants; assay type: cell-based
Procedure: Fig 6 DBM-mediated downregulation of caspase-6 restores IFN signalling suppressed by the coronavirus nucleocapsid protein. A) Intracellular levels of HCoV-OC43 nucleocapsid proteins and caspase-6 in HCoV-OC43-infected cells treated with serially diluted DBM or Z-VEID-FMK. Cells were pretreated with gradient-diluted DBM or Z-VEID-FMK prior to viral infection. B) Inhibitory effects of DBM against HCoV-OC43 and EV71. Cells were pre-treated with gradient-diluted DBM for 1 hour before inoculated with HCoV-OC43 or EV71, respectively. C) Attenuation of antiviral effects of DBM in IFN signalling-deficient cell lines. HEK293T-AT and Vero E6 cells were pre-treated with gradient-diluted DBM for 1 hour before infection. […] Cells were pretreated with gradient-diluted DBM or Z-VEID-FMK for 24 h, and then transfected with coronaviruses nucleocapsid proteins expression plasmid, and after 16 h of transfection, cells were treated with DMSO or STS. E) DBM alleviated the suppression of IFNB1 expression induced by coronaviruses nucleocapsid proteins and caspase-6. Cells were pretreated with DMSO or DBM for 24 h, subsequently, transfected with Poly(I:C) and plasmids. F) Impact of IFN signalling suppressants on the antiviral activity of DBM. Cells were pretreated with DMSO, Ruxolitinib or IFN alpha-IFNAR-IN-1 hydrochloride, respectively, for 1 hour. Subsequently, a gradient dilution of DBM was added to the medium, and then HCoV-OC43 was inoculated into the cells. Data were statistically analysed with Student’s T test. *: p ≤ 0.05, **: p ≤ 0.01, ***: p ≤ 0.001, ****: p ≤ 0.0001; ns, not significant. The experiments were repeated three times independently with similar results.
On the basis of this finding, we hypothesized that DBM downregulates caspase-6, reduces the cleavage of nucleocapsid proteins, and thereby enhances IFN signalling to inhibit viral replication. To test this hypothesis, we incubated cells transfected with plasmids expressing coronavirus nucleocapsid proteins in the presence or absence of DBM or Z-VEID-FMK. […] As the reduction in cleaved nucleocapsid protein fragments could theoretically […] IFN signalling, we sought to investigate the relationship between DBM treatment and IFN signalling. To this end, we further transfected cells with plasmids expressing both caspase-6 and coronavirus nucleocapsid proteins, and subsequently incubated the cells with or without DBM. […] Whereas the other two apoptosis-executing caspases, caspase-3 and caspase-7, could not inhibit IFN signalling in a similar system (S8C Fig). Furthermore, we examined the expression of IFNB1 and its downstream IFN-stimulated genes following DBM treatment in the context of HCoV-OC43 infection (S8D and S8E Fig).

[2] = tested on: HCoV-OC43; assay: Time-of-addition assay; assay type: cell-based; conditions: for time-of-addition, viral inhibition: replicates
Procedure: To obtain further insight into the stage at which DBM inhibits the replication of HCoV-OC43 and other HCoVs, RD cells were incubated with compounds, including DBM, remdesivir (RDV), and chloroquine (CQ), at different stages of viral infection. Viral RNA from the supernatant was extracted and quantitatively analysed via qRT-PCR. […] For the viral binding assay, cells were cultured in the presence or absence of DBM at different concentrations for 1 hour before being infected with HCoV-OC43 at an MOI of 50, and then were placed on ice for 2 hours for the viral particles to bind to the membrane of the host cells, followed by washing with PBS. […] In addition to binding to receptors from host cells, the spike proteins of HCoV-OC43 could also trigger membrane fusion when HCoV-OC43 spike plasmid-transfected 293T cells were seeded together with RD cells as target cells, and the addition of DBM had no effect on this process (S5C Fig). To examine whether DBM inhibits viral internalisation, cells were inoculated with HCoV-OC43 for 1 hour on ice before being treated with either DBM or DMSO, and CQ was included to prevent endosomal acidification. Subsequently, HCoV-OC43 nucleocapsid proteins were immunostained with CoraLite Plus 488 to assess viral internalisation via confocal microscopy. […] To determine whether DBM influences viral release, we quantified viral RNA both intracellularly and in the supernatant.
To evaluate the effects of DBM on the life cycle of HCoV-229E and HCoV-OC43, fresh culture medium containing 0.6 μM DBM, 0.1 μM remdesivir (RDV), or 10 μM chloroquine (CQ) was supplemented with preseeded cells at different time points relative to infection (entry group: 0 to –2 hours; postinfection group: 2–12 hours; and full-time group: 0 to –12 hours). DMSO served as the control. At 24 hours postinfection, the number of intracellular virus RNA copies was quantified by qRT-PCR as previously described.

[3] = tested on: HCoV-OC43; conditions: DBM 400 mpk QD
[4] = tested on: caspase-6; assay type: cell-based
[5] = tested on: mammary tumorigenesis; set-up: method as in PMID 11403916; conditions: dietary DBM, mice; cited from earlier work

Q: Which “Viral RNA copies (Fig6F)” value ([1]; DBM 0.06, with DMSO) does the source give for `O=C(CC(=O)c1ccccc1)c1ccccc1` [DBM, dibenzoylmethane] here?
A: The value was 8575323 and 7173199 and 8361273.

Q: And the “Viral RNA copies (Fig6F)” value ([1]; DBM 0.06, with IFNi)?
A: The value was 714000 and 1370000 and 1200000.

Q: What about the “Viral RNA copies (Fig6F)” value ([1]; DBM 0.19, with DMSO) of the same compound?
A: Its value is 4042565 and 5441926 and 4875856.

Q: And the “Viral RNA copies (Fig6F)” value ([1]; DBM 0.19, with IFNi)?
A: The value was 1160000 and 961000 and 754000.

Q: What about the “Viral RNA copies (Fig6F)” value ([1]; DBM 0.19, with RUX) of the same compound?
A: Its value is 1920000 and 2400000 and 1530000.

Q: What about the “Viral RNA copies (Fig6F)” value ([1]; DBM 0.56, with DMSO) of the same compound?
A: The value was 380096 and 713734 and 725626.

Q: What about the “Viral RNA copies (Fig6F)” value ([1]; DBM 0.56, with IFNi) of the same compound?
A: The value was 1150000 and 922000 and 1030000.

Q: And the “Viral RNA copies (Fig6F)” value ([1]; DBM 0.56, with RUX)?
A: The value was 1380000 and 2020000 and 2160000.

Q: And the “Viral RNA copies (Fig6F)” value ([1]; DBM 1.67, with DMSO)?
A: Its value is 91512 and 73409 and 91292.

Q: What about the “Viral RNA copies (Fig6F)” value ([1]; DBM 1.67, with IFNi) of the same compound?
A: The value was 807000 and 1340000.

Q: And the “Viral RNA copies (Fig6F)” value ([1]; DBM 1.67, with RUX)?
A: The value was 2040000 and 3700000.

Q: What about the “Viral RNA copies (Fig6F)” value ([1]; DBM 5.00, with DMSO) of the same compound?
A: Its value is 87392 and 81273 and 92455.

Q: What about the “Viral RNA copies (Fig6F)” value ([1]; DBM 5.00, with IFNi) of the same compound?
A: Its value is 1300000 and 976000 and 920000.

Q: And the “Viral RNA copies (Fig6F)” value ([1]; DBM 5.00, with RUX)?
A: Its value is 1880000 and 1760000 and 2040000.

Q: What about the “antiviral activity of DBM, cells pretreated with IFN alpha-IFNAR-IN-1 hydrochloride” value ([1]; HCoV-OC43) of the same compound?
A: Its value is “markedly reduced”.

Q: What about the “antiviral activity of DBM, cells pretreated with ruxolitinib” value ([1]; HCoV-OC43) of the same compound?
A: The value was “markedly reduced”.

Q: And the “time-of-addition, viral inhibition” value ([2]; Entry)?
A: The value was 44.1 and 45.1 and 75.5.

Q: What about the “time-of-addition, viral inhibition” value ([2]; Full-Time) of the same compound?
A: The value was 98.8 and 98.7 (2×).

Q: What about the “time-of-addition, viral inhibition” value ([2]; Post-Entry) of the same compound?
A: The value was 79.3 and 93.6 and 93.3.

Q: And the “HCoV-OC43 infection, compound incubated before and during virus infection” value ([2]; RD cells, 0.6 μM DBM)?
A: The value was “did not significantly inhibit”.

Q: What about the “replication of HCoV-OC43, compound added 2 hours after virus inoculation” value ([2]; RD cells, 0.6 μM DBM) of the same compound?
A: The value was “potently inhibited”.

Q: What about the “body weight loss during the experiment” value ([3]; VV116 25 mpk QD) of the same compound?
A: The value was “did not show any body weight loss”.

Q: What about the “viral copy numbers in the brain, lungs, and kidneys compared with the vehicle group” value ([3]; 5 days post infection) of the same compound?
A: Its value is “significantly fewer viral copy numbers”.

Q: What about the “viral load in the brains lower than in the vehicle group” value ([3]; Day 5) of the same compound?
A: Its value is “approximately 6 logs”.

Q: And the “Caspase-6/CASP6 level relative to DMSO (Fig5I)” value [4]?
A: Its value is 75.9 and 67.7 and 60.2 and 63.8.

Q: What about the “relative level of CASP6 mRNA” value [4] of the same compound?
A: The value was “decreased”.

Q: And the “reduction of tumor incidence” value [5]?
A: The value was 97%.
